# Conditions: phenol between MCT oil phase and saline phase; oil and saline 19:1; HPLC
# Text: The partition coefficient P is a value calculated by dividing a concentration of preservative in the oil phase by a concentration of preservative in the water phase.
smiles,measurement,value
Oc1ccccc1 [phenol],logP,1.1
